Reference: US5789412A, “Piperazides derived from arylpiperazine, processes for their preparation, their use as medicaments and pharmaceutical compositions comprising them” (Pierre Fabre Medicament, priority 1994, dated 1998)
Where a name gives a salt, the structure may show the parent alone. Read-outs that look alike come from different tables or passages of the source.

How the values were obtained:
human 5HT1Dα receptor = target: T1, human 5HT1Dα receptor (Homo sapiens, UniProt P28221); assay: Binding to human 5HT1Dα receptor ([3H]-5CT displacement)
T1 construct: expressed in transfected cells
T1 sequence (P28221 whole entry): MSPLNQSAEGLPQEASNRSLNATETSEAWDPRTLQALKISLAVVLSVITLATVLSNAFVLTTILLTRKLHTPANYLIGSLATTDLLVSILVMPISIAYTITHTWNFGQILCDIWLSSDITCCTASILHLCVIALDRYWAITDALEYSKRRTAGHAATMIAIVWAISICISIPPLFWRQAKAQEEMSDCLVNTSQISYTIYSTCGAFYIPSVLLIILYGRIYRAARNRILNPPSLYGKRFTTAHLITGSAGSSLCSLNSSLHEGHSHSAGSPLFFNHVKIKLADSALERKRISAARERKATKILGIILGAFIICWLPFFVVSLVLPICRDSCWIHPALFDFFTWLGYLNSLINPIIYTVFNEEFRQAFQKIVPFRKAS
Experimental: (§1) Human 5HT1Dα and 5HT1Dβ receptors were cloned according to the sequences published by M. Hamblin and M. Metcalf, Mol. Pharmacol., 40, 143 (1991) and Weinshenk et al., Proc. Natl. Acad. Sci. 89, 3630 (1992).
(§2) Transitory transfection and permanent transfection of the genes for these receptors was carried out in cell lines Cos-7 and CHO-K1 using an electroporator.
(§3) The binding of the derivatives of the present invention with the human 5HT1Dα, 5HT1Dβ and 5HT1A receptors was studied according to the method described by P. Pauwels and C. Palmier (Neuropharmacology, 33, 67, 1994).
(§4) The incubation media for these binding measurements comprise 0.4 ml of cell membrane preparation, 0.05 ml of a tritiated ligand [[3H]-5CT (final concentration: 2 nM) for the 5HT1Dα and 5HT1Dβ receptors and [3H]-8OH-DPAT (final concentration: 1 nM) for the 5HT1A receptor] and 0.05 ml of the test molecule (final concentrations of 0.1 nM to 1000 nM) or 10 μM (final concentration) of serotonin (5HT1Dα and 5HT1Dβ) or 1 μM (final concentration) of spiroxatrine (5HT1A).

human 5HT1Dβ receptor [1] = target: T2, human 5HT1Dβ receptor (Homo sapiens, UniProt P28222); assay: Binding to human 5HT1Dβ receptor ([3H]-5CT displacement)
T2 construct: expressed in transfected cells; host or cells: CHO-K1
T2 sequence (P28222 whole entry): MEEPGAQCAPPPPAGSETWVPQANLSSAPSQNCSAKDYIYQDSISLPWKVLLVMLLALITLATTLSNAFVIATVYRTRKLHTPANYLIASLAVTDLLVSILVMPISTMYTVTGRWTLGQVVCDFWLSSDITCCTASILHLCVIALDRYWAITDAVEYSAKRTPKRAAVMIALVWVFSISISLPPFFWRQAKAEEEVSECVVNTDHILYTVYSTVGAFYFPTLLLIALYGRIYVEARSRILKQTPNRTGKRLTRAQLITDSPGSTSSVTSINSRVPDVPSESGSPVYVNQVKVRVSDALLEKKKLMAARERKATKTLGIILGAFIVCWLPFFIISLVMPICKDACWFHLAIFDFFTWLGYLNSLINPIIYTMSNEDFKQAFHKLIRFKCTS
Experimental: as §1, §2, §3, §4

human 5HT1A receptor = target: T3, human 5HT1A receptor (Homo sapiens, UniProt P08908); assay: Binding to human 5HT1A receptor ([3H]-8OH-DPAT displacement, HeLa HA7 cell line); settings: read-out: 5HT1A Ki (affinity for the receptors concerned)
T3 construct: host or cells: HeLa HA7
T3 sequence (P08908 1-422): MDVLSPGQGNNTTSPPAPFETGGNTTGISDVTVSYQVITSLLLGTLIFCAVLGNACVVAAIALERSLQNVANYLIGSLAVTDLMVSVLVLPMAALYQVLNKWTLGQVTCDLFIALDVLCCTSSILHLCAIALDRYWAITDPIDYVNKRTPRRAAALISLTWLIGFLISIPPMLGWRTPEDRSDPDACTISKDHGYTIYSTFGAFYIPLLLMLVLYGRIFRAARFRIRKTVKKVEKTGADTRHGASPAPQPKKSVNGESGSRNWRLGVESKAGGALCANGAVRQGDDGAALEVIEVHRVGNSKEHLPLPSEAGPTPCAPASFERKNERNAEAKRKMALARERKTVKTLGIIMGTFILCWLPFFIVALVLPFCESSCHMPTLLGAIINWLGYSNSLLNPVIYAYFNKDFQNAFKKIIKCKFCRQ
Source text: The binding of the derivatives of the present invention with the human 5HT1Dα, 5HT1Dβ and 5HT1A receptors was studied according to the method described by P. Pauwels and C.

human 5HT1Dβ receptor [2] = target: T2, human 5HT1Dβ receptor; assay: Inhibition of forskolin-stimulated cyclic AMP formation mediated by human 5HT1Dβ receptor in transfected CHO-K1 cells (intrinsic agonist activity); type: cell-based
Experimental: as §1, §2
Inhibition of the formation of cyclic AMP (stimulated by forskolin) mediated by the human 5HT1Dβ receptor was studied in CHO-K1 cells transfected with the receptor according to the technique described beforehand for the 5HT1B receptor (P. Pauwels and C. Palmier, Neuropharmacology, 33, 67, 1994).
**Intrinsic agonist acitivity (inhibition of the formation of cyclic AMP
induced by forskolin in CHO--K1 cells).

[3] = [3H]-5CT 2 nM, cell membrane preparation, read-out: 5HT1Dα Ki (affinity for the receptors concerned)
[4] = [3H]-5CT 2 nM, cell membrane preparation, read-out: 5HT1Dβ Ki (affinity for the receptors concerned)
[5] = [3H]-8OH-DPAT 1 nM, HeLa HA7 cell line
[6] = CHO-K1 cells, forskolin stimulated, read-out: 5HT1Dβ EC50 (intrinsic agonist activity, inhibition of the formation of cyclic AMP induced by forskolin)

Row | SMILES | Ki (human 5HT1Dα receptor; [3]) [nM] | Ki (human 5HT1Dβ receptor [1]; [4]) [nM] | Ki (human 5HT1A receptor; [5]) [nM] | EC50 (human 5HT1Dβ receptor [2]; [6]) [nM] | Ki (human 5HT1A receptor) [nM] | Ki (human 5HT1Dα receptor) [nM] | Ki (human 5HT1Dβ receptor [1]) [nM] | EC50 (human 5HT1Dβ receptor [2]) [nM]
1 | COc1ccc(NC(=O)N2CCN(c3cccc(C)c3C)CC2)cc1N1CCN(C)CC1 [Example 5, fumarate] | 42 | 1.2 | 557 | > 1000 |  |  |  | 
2 | COc1ccc(NC(=O)N2CCN(c3ccc([N+](=O)[O-])cc3)CC2)cc1N1CCN(C)CC1 [Example 6, N-[4-[4-Methoxy-3-(4-methylpiperazin-1-yl)phenyl]-4-(p-nitrophenyl)piperazin-1-ylamide fumarate] | 114 | 5 | 457 | > 1000 |  |  |  | 
3 | COc1ccc(NCC(=O)N2CCN(c3ccccc3C)CC2)cc1N1CCN(C)CC1 [Example 12, 2-[4-Methoxy-3-(4-methylpiperazin-1-yl)phenylamino]-1-(4-o-tolylpiperazin-1-yl)ethanone fumarate] | 420 | 28 |  | > 1000 | 3000 |  |  | 
4 | CN1CCN(c2cccc3ccc(OC(=O)N4CCN(c5ccccc5)CC4)cc23)CC1 [Example 19, 8-(4-Methylpiperazin-1-yl)naphthalen-2-yl 4-phenylpiperazin-1-yloate] |  |  | 16 |  |  | 2.8 | 0.5 | > 1000

The next lines start with results.

Row | Ki (human 5HT1Dα receptor; [3]) [nM] | Ki (human 5HT1Dβ receptor [1]; [4]) [nM] | Ki (human 5HT1A receptor; [5]) [nM] | EC50 (human 5HT1Dβ receptor [2]; [6]) [nM] | SMILES | Ki (human 5HT1A receptor) [nM] | Ki (human 5HT1Dα receptor) [nM] | Ki (human 5HT1Dβ receptor [1]) [nM] | EC50 (human 5HT1Dβ receptor [2]) [nM]
5 | 48 | 2.3 | 396 | > 1000 | COc1ccc(NC(=O)N2CCN(c3ccccc3C)CC2)cc1N1CCN(C)CC1 [Example 1, N-[4-methoxy-3-(4-methylpiperazin-1-yl)phenyl]-4-(o-tolylpiperazin-1-ylamide fumarate] |  |  |  | 
6 | 68 | 2 |  | > 1000 | COc1ccc(NC(=O)N2CCN(c3ccccc3OC)CC2)cc1N1CCN(C)CC1 [Example 2, N-[4-Methoxy-3-(4-methylpiperazin-1-yl)phenyl]-4-(o-methoxyphenyl)piperazin-1-ylamide fumarate] |  |  |  | 
7 | 230 | 8.4 | 1000 | > 1000 | COc1ccc(N2CCN(C(=O)Nc3ccc(OC)c(N4CCN(C)CC4)c3)CC2)cc1 [Example 3, fumarate] |  |  |  | 
8 | 140 | 8.2 | 786 | > 1000 | COc1ccc(NC(=O)N2CCN(c3ccc4c(c3)OCO4)CC2)cc1N1CCN(C)CC1 [Example 7, N-[4-Methoxy-3-(4-methylpiperazin-1-yl)phenyl]-4-(3,4-methylenedioxy)phenylpiperazin-1-ylamide difumarate] |  |  |  | 
9 | 120 | 11.2 | 714 | > 1000 | COc1ccc(NC(=O)N2CCN(c3ccccc3C#N)CC2)cc1N1CCN(C)CC1 [Example 8, N-[4-Methoxy-3-(4-methylpiperazin-1-yl)phenyl]-4-(o-cyanophenyl)piperazin-1-ylamide fumarate] |  |  |  | 
10 | 0.68 | 0.28 | 50 | > 1000 | Cc1ccccc1N1CCN(C(=O)COc2ccc3cccc(N4CCN(C)CC4)c3c2)CC1 [Example 16, 2-[8-(4-Methylpiperazin-1-yl)naphthalen-2-yloxy]-1-(4-o-tolylpiperazin-1-yl)ethanone] |  |  |  | 
